Laboratory results reported in patent US12071404B2, “Aza (indole)-, benzothiophene-, and benzofuran-3-sulfonamides” (UCB Pharma GmbH, priority 2016, dated 2024).

Assays:
GPR17 [1] = target: T1, GPR17 (Homo sapiens, UniProt Q13304); assay: Calcium mobilization functional assay (GPR17 Ca2+ assay); format: cell-based; parameters: host or cells: Flp-In T-REx CHO; conditions: CHO hGPR17 cells, inhibition of 50 nM MDL29,951, Calcium 5 dye, FLIPR; read-out: Ca2+ assay pIC50 (converted)
Outline: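 Flp-In T-REx CHO cells stably expressing human GPR17, doxycycline-induced (1 μg/mL, 16-20 h), loaded 60 min with Calcium 5 dye. Inhibition by varying test-compound concentrations of the 50 nM MDL29,951 agonist response was read by fluorescence over time at room temperature. pIC50 came from 4-parameter logistic fitting.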
Target sequence in this assay (Q13304 whole entry): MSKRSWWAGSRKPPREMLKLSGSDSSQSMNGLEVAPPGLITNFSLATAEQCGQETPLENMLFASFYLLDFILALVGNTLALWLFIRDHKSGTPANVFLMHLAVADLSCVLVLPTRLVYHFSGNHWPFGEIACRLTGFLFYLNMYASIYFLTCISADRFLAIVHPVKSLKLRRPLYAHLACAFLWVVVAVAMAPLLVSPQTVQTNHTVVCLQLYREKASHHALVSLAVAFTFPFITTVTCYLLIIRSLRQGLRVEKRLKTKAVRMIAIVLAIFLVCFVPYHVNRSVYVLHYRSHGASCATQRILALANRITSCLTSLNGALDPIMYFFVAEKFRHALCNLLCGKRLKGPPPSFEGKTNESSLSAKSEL

[2] = test system: primary oligodendrocyte progenitor cells (OPCs); assay: MBP fiber plates oligodendrocyte maturation/myelination assay; format: cell-based, rat; conditions: OPCs on aligned fiber plates, 1 μM test compound, 6 days, FIG. 2
Procedure: Primary oligodendrocyte progenitor cells (OPCs) were isolated from the forebrains of Wistar rat pups at postnatal day 0 to 2. Cerebra were mechanically dissociated with a syringe and two different hollow needles (first 1.2×40 and then 0.60×30). Clump-free cell suspension was filtered through a 70-μm cell strainer and plated into poly-D-lysine-coated 75-cm^2 culture flasks in DMEM supplemented with 10% (v/v) heat-inactivated fetal calf serum, penicillin (100 units/mL), and streptomycin (0.1 mg/mL) with medium exchanged every second day. After 8 to 11 days at 37° C. in a humidified atmosphere of 5% CO2, mixed cultures were shaken at 240 rpm for 14-24 h to detach OPCs from astrocytes and microglia. To further enrich for OPCs, the suspension was plated onto uncoated Petri dishes for 45 min. Then, OPCs were seeded into poly-L-ornithine-coated plates and maintained at 37° C. in a humidified atmosphere of 5% CO2 in proliferating Neurobasal medium supplemented with 2% (v/v) B27, 2 mM GlutaMAX, 100 units/mL penicillin, 0.1 mg/mL streptomycin, 10 ng/mL PDGF-AA, and 10 ng/mL basic FGF changing the medium every second day.
The effects of negative modulators of GPR17 on primary oligodendrocytes maturation/myelination can be assessed in vitro by immunoassays using antibodies directed against Myelin Basic Protein (MBP), as marker for mature oligodendrocytes. […]

GPR17 [3] = target: T1, GPR17; assay: cAMP accumulation functional assay (HTRF, Schild analysis); format: cell-based; parameters: host or cells: Flp-In T-REx CHO; conditions: CHO hGPR17 cells, Schild analysis vs MDL29,951, 5 μM forskolin, read-out: cAMP assay pA2 (converted)
Outline: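 CHO Flp-In T-REx cells with doxycycline-induced human GPR17 were preincubated 30 min at room temperature in HBSS-HEPES pH 7.4 with antagonist. cAMP was then measured by HTRF after 60 min. MDL29,951 pEC50 shifts gave dose ratios, and Schild analysis gave pA2.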
Target sequence in this assay (Q13304 whole entry): as above

[4] = Determination of plasma and brain exposure (brain/plasma ratio, brain Kp); format: in vivo; conditions: male Sprague Dawley rats, 3 mg/kg intraperitoneal, approximately 45 minutes after administration, FIG. 3
Procedure: Male Sprague Dawley rats (n=2 per time point) were used to determine the brain penetration of the compounds at 15, 45 and 120 min after 3 mg/kg of intraperitoneal administration.
At each time point, following anesthesia (inhalation of isoflurane) and blood collection (1 mL cardiac puncture into tubes containing K2EDTA) rats were exsanguinated and the brain perfused via the left ventricle (50 mL of heparinized NaCl 0.9% (0.15 UI/mL) flow 50 mL/min).
Brain was collected and weighed. Plasma was obtained from blood samples by centrifugation (3000 g for 15 min at 4° C.). Brain and plasma samples were frozen until time of analysis.
At the time of analysis, brain samples were homogenized in plasma (1:4 v:v) and together with plasma samples, following protein precipitation, were analyzed by HPLC/MS-MS analysis.

[5] = test system: cuprizone-induced demyelination; assay: Acute cuprizone mice model (PLP immunohistochemistry in corpus callosum); format: in vivo, C57BI/6 J mice; conditions: oral, daily, 6 mg/kg and 20 mg/kg, vs vehicle p<0.01, FIG. 5
GPR17 [6] = target: T1, GPR17; conditions: activating ligands for GPR17; cited from earlier work
Target sequence in this assay (Q13304 whole entry, species assumed): as the sequence (Q13304 whole entry) above

[7] = exposure to air and light; cited from earlier work

N#Cc1ccc(NS(=O)(=O)c2c[nH]c3cc(Cl)ccc23)c(F)c1 [Compound I-116, 6-chloro-N-(4-cyano-2-fluorophenyl)-1H-indole-3-sulfonamide]
IC50 (GPR17 [1]): < 3.16 nM | myelin sheath length (myelinated fibers by fiber length) [2]: induced longer myelin sheaths | Kb (GPR17 [3]): < 3.16 nM

O=S(=O)(Nc1ccc(F)cc1F)c1c[nH]c2cc(Cl)ccc12 [Compound I-1, 6-chloro-N-(2,4-difluorophenyl)-1H-indole-3-sulfonamide]
IC50 (GPR17 [1]): > 31.6 nM | Kb (GPR17 [3]): > 31.6 nM | brain concentrations versus plasma exposure [4]: displayed brain concentrations paralleling plasma exposure

O=S(=O)(Nc1cc(F)c(Br)cc1F)c1c[nH]c2nc(Cl)ccc12 [Compound I-228, N-(4-bromo-2,5-difluorophenyl)-6-chloro-1H-pyrrolo[2,3-b]pyridine-3-sulfonamide]
reappearance of myelin-associated proteins (PLP levels in corpus callosum) [5]: accelerates the reappearance of the myelin-associated proteins

NCc1[nH]cc(CCC(=O)O)c1CC(=O)O [PBG, porphobilinogen]
amounts needed in the GPR17 assays (reported affinity quite low) (GPR17 [6]): mM range | chemical stability [7]: rapidly decomposes after exposure to air and light
